This is an account of results in article doi:10.1101/2024.03.07.583918v2 (biorxiv, 2024).

The target of this experiment is T1, CheR (Pectobacterium atrosepticum, UniProt Q6D6I8).
T1 sequence (Q6D6I8 1-290): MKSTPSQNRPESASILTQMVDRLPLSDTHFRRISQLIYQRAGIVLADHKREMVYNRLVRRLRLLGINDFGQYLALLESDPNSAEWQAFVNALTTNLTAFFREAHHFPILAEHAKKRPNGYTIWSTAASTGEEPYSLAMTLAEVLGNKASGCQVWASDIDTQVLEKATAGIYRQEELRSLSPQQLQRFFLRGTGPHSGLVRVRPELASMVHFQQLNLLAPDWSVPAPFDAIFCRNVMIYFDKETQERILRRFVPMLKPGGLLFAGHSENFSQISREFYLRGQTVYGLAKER
The experiment in a line: isothermal titration calorimetry. The class given is binding.

Structures are written as SMILES.

Broadly, the Kd is the free concentration of one partner at which half of the binding sites on the other are occupied at equilibrium, for simple one-to-one binding. Lower therefore signals tighter binding. On to `Nc1ncnc2c1ncn2[C@@H]1O[C@H](CSCC[C@H](N)C(=O)O)[C@@H](O)[C@H]1O` [SAH], for which the Kd came to 0.48 ± 0.02 µM.
The figure for `C[S+](CC[C@H](N)C(=O)O)C[C@H]1O[C@@H](n2cnc3c(N)ncnc32)[C@H](O)[C@@H]1O` (some centres unmarked) [SAM] is 140 ± 20 µM.
